{"source": "patent US20250368755A1", "about": "“PEPTIDE THAT SP[…] TO PPC REGION OF SARS-COV-2 SPIKE PROTEIN AND COMPOSITION FOR […]-COV-2 INFECTION USING THE SAME” (priority 2024, published 2025)", "origin": "cited, not measured here", "biological_target": "S1/S2 region", "conditions": "known value; read-out: binding affinity of furin for the cleavage of S1/S2 region; cited from earlier work", "data": [{"substance": "furin", "values": [{"measurement": "Kd", "result": 16, "unit": "nM"}]}]}
